According to ChEMBL document CHEMBL1134187, “Synthesis and antitumor evaluation of novel monoindolyl-4-trifluoromethylpyridines and bisindolyl-4-trifluoromethylpyridines” (Bioorg Med Chem Lett, 2001):

What was measured:
A549 [1] = test: Concentration for in vitro cytotoxicity against A-549 human lung tumor cells; format: functional, cell-based
A549 [2] = test: Inhibition of proliferation of A549 cells at concentration of 0.1 uM was determined; format: functional; settings: Homo sapiens
A549 [3] = test: Inhibition of proliferation of A549 cells at concentration of 100 uM was determined; format: functional; settings: Homo sapiens
A549 [4] = test: Inhibition of proliferation of A549 cells at concentration of 10 uM was determined; format: functional; settings: Homo sapiens
A549 [5] = test: Inhibition of proliferation of A549 cells at concentration of 1 uM was determined; format: functional; settings: Homo sapiens
P388 [6] = test: Concentration for in vitro cytotoxicity against murine P388 leukemia cells; format: functional, cell-based; settings: Mus musculus
P388 [7] = test: Inhibition of proliferation of […] at concentration of 100 uM was determined; format: functional; settings: Mus musculus
P388 [8] = test: Inhibition of proliferation of […] at concentration of 10 uM was determined; format: functional; settings: Mus musculus
P388 [9] = test: Inhibition of proliferation of […] at concentration of 1 uM was determined; format: functional; settings: Mus musculus
P388 [10] = test: Inhibition of proliferation of […] at concentration of 0.1 uM was determined; format: functional; settings: Mus musculus

Row | SMILES | IC50 (A549 [1]) | inhibition at 0.1 µM (A549 [2]) | inhibition at 100 µM (A549 [3]) | inhibition at 10 µM (A549 [4]) | inhibition at 1 µM (A549 [5]) | IC50 (P388 [6]) | inhibition at 100 µM (P388 [7]) | inhibition at 10 µM (P388 [8]) | inhibition at 1 µM (P388 [9]) | inhibition at 0.1 µM (P388 [10])
1 | Cc1ccc(S(=O)(=O)n2cc(-c3cc(C(F)(F)F)cc(-c4cn(S(=O)(=O)c5ccc(C)cc5)c5cc(Br)ccc45)n3)c3ccc(Br)cc32)cc1 | > 100 µM | 25.8% | 49.2% | 32% | 30.7% | > 100 µM | 8.9% | 15.1% | 10% | 8.1%
2 | Cc1ccc(S(=O)(=O)n2cc(-c3cc(C(F)(F)F)ccn3)c3cc(OCc4ccccc4)ccc32)cc1 | > 100 µM | 16.9% | 35.9% | 9.9% | 23.2% | > 100 µM | 2.2% |  |  | 
3 | Cc1ccc(S(=O)(=O)n2cc(-c3cc(C(F)(F)F)c(C#N)c(-c4cn(S(=O)(=O)c5ccc(C)cc5)c5ccc(Br)cc45)n3)c3cc(Br)ccc32)cc1 | 78 µM | 9.8% | 70.6% | 9.6% | 17.4% | > 100 µM | 8.2% |  | 3.7% | 
4 | COc1ccc2c(-c3cc(C(F)(F)F)cc(-c4cn(S(=O)(=O)c5ccc(C)cc5)c5cc(OC)ccc45)n3)cn(S(=O)(=O)c3ccc(C)cc3)c2c1 | 1.7 µM | 1.7% | 97.1% | 28.8% | 35.5% | 4.3 µM | 99.9% | 92.8% |  | 
5 | Cc1ccc(S(=O)(=O)n2cc(-c3cc(C(F)(F)F)c(C#N)c(-c4cn(S(=O)(=O)c5ccc(C)cc5)c5cc(Br)ccc45)n3)c3ccc(Br)cc32)cc1 | > 100 µM | 23.8% | 48.1% | 27.6% | 18.8% | > 100 µM | 1.3% | 5.7% | 1.7% | 3.1%
6 | Cc1ccc(S(=O)(=O)n2cc(-c3cc(C(F)(F)F)ccn3)c3ccccc32)cc1 | 25 µM | 25% | 68.4% | 35% | 23.8% | > 100 µM | 49.9% |  | 10.5% | 
7 | COc1ccc2c(c1)c(-c1cc(C(F)(F)F)ccn1)cn2S(=O)(=O)c1ccc(C)cc1 | > 100 µM | 16.9% | 51.8% | 14.1% | 23.2% | > 100 µM | 15.6% |  |  | 
8 | Cc1ccc(S(=O)(=O)n2cc(-c3cc(C(F)(F)F)cc(-c4cn(S(=O)(=O)c5ccc(C)cc5)c5ccccc45)n3)c3ccccc32)cc1 | 23 µM | 37.5% | 69.3% | 27.6% | 36.7% | > 100 µM | 14.7% | 23.5% | 20.9% | 15.7%
9 | COc1ccc2c(c1)c(-c1cc(C(F)(F)F)cc(-c3cn(S(=O)(=O)c4ccc(C)cc4)c4ccc(OC)cc34)n1)cn2S(=O)(=O)c1ccc(C)cc1 | > 100 µM | 16.7% | 41.7% | 22.2% | 7.1% | > 100 µM | 13.8% | 5% | 7% | 9.3%
10 | COc1ccc2c(c1)c(-c1cc(C(F)(F)F)c(C#N)c(-c3cn(S(=O)(=O)c4ccc(C)cc4)c4ccc(OC)cc34)n1)cn2S(=O)(=O)c1ccc(C)cc1 | > 100 µM | 25% | 17.7% | 25.2% | 24.4% | > 100 µM |  | 3.5% |  | 1.7%
11 | COc1ccc2c(-c3cc(C(F)(F)F)c(C#N)c(-c4cn(S(=O)(=O)c5ccc(C)cc5)c5cc(OC)ccc45)n3)cn(S(=O)(=O)c3ccc(C)cc3)c2c1 | > 100 µM | 33% | 21.2% | 13.3% | 26.7% | > 100 µM | 3.8% | 10.1% | 9.1% | 5.1%
12 | Cc1ccc(S(=O)(=O)n2cc(-c3cc(C(F)(F)F)ccn3)c3cc(Br)ccc32)cc1 | 4.1 µM | 38.9% | 98% | 20.6% | 32.8% | > 100 µM | 32.6% | 21.9% | 17.8% | 9.7%
